The values that follow are results of earlier work, collected in patent US20240180852A1, “TREATMENT FOR MALIGNANT PLEURAL EFFUSION IN HUMANS” (Signpath Pharma, Inc., priority 2021, published 2024).

The structures appear in SMILES notation.

The conditions of data set [1]: in vivo.

On to `COc1cc(C=CC(=O)CC(=O)C=Cc2ccc(O)c(OC)c2)ccc1O` [curcumin, 1,7-bis(4-hydroxy-3-methoxyphenyl)-1,6-heptadiene-3,5-dione], for which the solubility result was “low solubility”. The bioavailability result in data set [1] is “low bioavailability”.
